This is an account of results in patent US6514942B1, “Methods and compositions for stimulating T-lymphocytes” (The Board of Regents, The University of Texas System, priority 1995, dated 2003).

For one assay, the system named is OVA-1, HER-2high. The assay is described as follows: Lysis of peptide pre-pulsed autologous tumor by CTL-TAL (HLA-A2- system). Format: cell-based, human. The settings on record: OVA-1 pre-pulsed with peptide. How it is done:
(§1) Tumor cells and fibroblasts were labeled with 200 μCi of ^51Cr (Na^51CrO4; Amersham, Arlington Heights, Ill.) for 90 min at 37° C. (Ioannides et al., 1991). Lymphoblastoid cells and HLA-A2 transfectants were labeled overnight in RPMI-FCS, then washed three times and incubated with effector cells in RPMI-FCS in an incubator with 5%. CO2 (Bednarek et al., 1991; Gammon et al., 1992). When peptide recognition was determined, targets were incubated with 25 μM of peptides overnight during ^51Cr labeling or with 10 μM peptide for 2 h at 37° C. in RPMI-FCS then washed three times before being incubated with effector cells. Separate controls for spontaneous and total lysis were made for each peptide-pulsed target (Ioannides et al., 1991; Bednarek et al., 1991; Gammon et al., 1992). After 4-5 h, 100 μl of supernatant was collected and counted. To determine maximum lysis in 20-h assays, plates were left undisturbed in the incubator and the supernatant was collected after overnight incubation. For cold target inhibition studies, C1R:A2 cells were preincubated with HER-2 or control peptides overnight, then washed and admixed with ^51Cr-labeled targets at 2:1 and 6:1 (cold:hot targets) ratios. Percentage lysis was calculated from the formula: 100×[(E−S)/(T−S)], where E is experimental release, S is release in the absence of CTL, and T is release in 2 M HCl.
(§2) To address whether these peptides interfere with tumor lysis by autologous tumor reactive CTL-TAL in HLA-A2^− systems, the lysis of OVA-1, HER-2^high (HLA-A1, 24, B8, 35, Cw4) and OVA-31, HER-2^high was determined by pre-pulsing with either C43 or as a control, C44 peptide (VS→II). Target lysis by CTL-1 was: OVA-1 (68%), K562 (18%), OVA-1 plus C43 (37%), and OVA-1 plus C44 (51%). […] However, C43 and C44 had no effect on lysis of OVA-31 by CTL-31.

The subject of the next assay is OVA-31, HER-2high. Described as above. It is filed as cell-based, human. The settings on record: OVA-31 pre-pulsed with peptide. On the procedure: as §1, §2
In another assay the target is T1, HLA-A2 of T2 cells (Homo sapiens, UniProt P04439, D140Y/D185E/D98H/E176V/E277Q/G131W/G231S/I119V/I121R/I166T/I218V/L300P/L318F/N151K/N90K/P208A/P217A/Q86G/Q94H/R138H/R169H/T345S).
T1 construct: cell surface expression of HLA-A2 is lower (30-40%) than in normal LBL lines transfected with HLA-A2; endogenous in cells; host or cells: T2 (transport deletion mutant) human lymphoblastoid cells, obtained from Dr. Peter Creswell
The assay is described as follows: Reactivity of BB7.2 mAb with T2 cells after culture with peptide (immunofluorescence, FL1). It is filed as cell-based. The note with it: peptide 50 μg/ml, overnight culture. On the procedure: FIG. 5B. Effects of HER-2 peptides on reactivity of BB7.2 mAb with T2 cells. Studies were performed as described in the legend to FIG. 5A.
mAbs to CD3 (OKT3-FITC), CD4 (OKT4-FITC) and CD8 (OKT8-FITC) were obtained from Ortho Diagnostic (Ortho, Raritan, N.J.), mAb W6/32 (anti-HLA, -A, -B, -C) from Dako (Dako-Dakopatts, Denmark); HLA-A2 reacting mAb BB7.2 and MA2.1 from ATCC. Immunofluorescence studies were performed as described in Example 1.
To determine whether these peptides and longer analogs affect HLA-A2 conformation as an indication of HLA-A2 binding, the effects of HER-2 peptides on the reactivity of conformationally dependent mAb MA2.1 and BB.7.2 were examined with HLA-A2 of T2 cells. The human cell line T2 has a defect affecting endogenous peptide loading of MHC class I molecules. As a consequence, cell surface expression of HLA-A2 is lower (30-40%) than in normal LBL lines transfected with HLA-A2 (e.g., C1R) but the reactivity of MA2.1 and BB.7.2 mAb is increased when certain HLA-A2 binding peptides are added to the culture medium (Anderson et al., 1993). Although most human MHC class I molecules cannot be induced at the low temperatures used for their murine counterparts because of fundamental structural differences between human and mouse class I (Anderson et al., 1993), the fact that they express few endogenous (mainly signal) peptides (Zweerink et al., 1993) increases the sensitivity of detection of peptide-HLA-A2 interaction.

Turning to “RFRELVSEFSRMAR [Peptide C43, HER-2:968-981 14mer peptide]”, in the assay on OVA-1, HER-2high, the “Target lysis by CTL-1” value turned out to be 37% and the “inhibition of lysis of OVA-1 by CTL-1” value is on record as 45%. The “effect on lysis of OVA-31 by CTL-31” value in the assay with OVA-31, HER-2high is “no effect”.
Take “ELVSEFSRV [Peptide C84, HER-2:971-979 analog, Met(P9) substituted by Val]”: the “FL1 of T2 cells stained with BB7.2 mAb” value in the assay with HLA-A2 of T2 cells is reported as “even higher increase in FL1”.
